Experimental data published in ChEMBL document CHEMBL1137170, “Synthesis, biophysical and biological evaluation of 3,6-bis-amidoacridines with extended 9-anilino substituents as potent G-quadruplex-binding telomerase inhibitors” (Bioorg Med Chem Lett, 2004).

Columns and labels:
[1] = biological target: Telomerase reverse transcriptase (Homo sapiens, UniProt O14746); test: Effective concentration against telomerase by TRAP
Nucleic Acid = test: Concentration required for G4-stabilisation in FRET assay; format: functional

Sequence of Telomerase reverse transcriptase (O14746 whole entry): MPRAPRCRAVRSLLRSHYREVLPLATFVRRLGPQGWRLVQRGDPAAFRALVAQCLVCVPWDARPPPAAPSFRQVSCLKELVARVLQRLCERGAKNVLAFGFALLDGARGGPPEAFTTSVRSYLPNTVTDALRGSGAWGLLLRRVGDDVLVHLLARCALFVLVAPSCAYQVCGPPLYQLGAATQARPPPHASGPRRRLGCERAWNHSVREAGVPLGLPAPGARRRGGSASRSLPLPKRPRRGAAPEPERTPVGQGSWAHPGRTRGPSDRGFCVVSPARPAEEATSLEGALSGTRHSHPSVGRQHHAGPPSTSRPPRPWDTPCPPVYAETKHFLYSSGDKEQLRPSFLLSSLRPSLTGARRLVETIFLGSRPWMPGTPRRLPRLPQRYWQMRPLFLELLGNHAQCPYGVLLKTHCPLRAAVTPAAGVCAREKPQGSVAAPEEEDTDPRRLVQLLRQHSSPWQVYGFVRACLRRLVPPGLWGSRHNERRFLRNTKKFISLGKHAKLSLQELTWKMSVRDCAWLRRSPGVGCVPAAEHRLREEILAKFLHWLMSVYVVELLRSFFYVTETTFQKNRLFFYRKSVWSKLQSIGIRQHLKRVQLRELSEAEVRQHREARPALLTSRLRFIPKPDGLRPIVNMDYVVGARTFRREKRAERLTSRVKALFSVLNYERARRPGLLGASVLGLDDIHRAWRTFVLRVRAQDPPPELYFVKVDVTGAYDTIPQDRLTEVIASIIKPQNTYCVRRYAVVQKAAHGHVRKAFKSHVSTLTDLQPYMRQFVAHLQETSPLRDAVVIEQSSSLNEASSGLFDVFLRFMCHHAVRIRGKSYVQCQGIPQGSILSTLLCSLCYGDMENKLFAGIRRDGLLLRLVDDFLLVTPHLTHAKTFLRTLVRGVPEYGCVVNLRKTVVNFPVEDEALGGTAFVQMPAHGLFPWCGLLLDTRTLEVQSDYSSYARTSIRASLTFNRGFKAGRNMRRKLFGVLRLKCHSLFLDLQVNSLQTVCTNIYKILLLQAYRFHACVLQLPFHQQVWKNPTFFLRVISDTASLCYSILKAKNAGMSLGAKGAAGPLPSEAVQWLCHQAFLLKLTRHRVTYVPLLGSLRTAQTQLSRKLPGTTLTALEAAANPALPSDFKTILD

| EC50 [1] [nM] | Structure (SMILES) | Concentration (Nucleic Acid) [µM] |
| --- | --- | --- |
| 318 | O=C(CCCCC(=O)N1CCCC1)Nc1ccc(Nc2c3ccc(NC(=O)CCN4CCCC4)cc3nc3cc(NC(=O)CCN4CCCC4)ccc23)cc1 | 0.72 |
| 267 | O=C(CCCCC(=O)N1CCOCC1)Nc1ccc(Nc2c3ccc(NC(=O)CCN4CCCC4)cc3nc3cc(NC(=O)CCN4CCCC4)ccc23)cc1 | 0.54 |
| 80 | CCN(CC)CCCCCCNC(=O)CCCCC(=O)Nc1ccc(Nc2c3ccc(NC(=O)CCN4CCCC4)cc3nc3cc(NC(=O)CCN4CCCC4)ccc23)cc1 | 0.49 |
| 113 | CN(C)c1ccc(Nc2c3ccc(NC(=O)CCN4CCCC4)cc3nc3cc(NC(=O)CCN4CCCC4)ccc23)cc1 | 0.72 |
| 165 | CN1CCN(C(=O)CCCCC(=O)Nc2ccc(Nc3c4ccc(NC(=O)CCN5CCCC5)cc4nc4cc(NC(=O)CCN5CCCC5)ccc34)cc2)CC1 | 0.59 |
| 98 | CCN(CC)CCNC(=O)CCCCC(=O)Nc1ccc(Nc2c3ccc(NC(=O)CCN4CCCC4)cc3nc3cc(NC(=O)CCN4CCCC4)ccc23)cc1 | 0.46 |
